Experiments:
[1] = tested on: soybean plants; assay: plant growth regulating activity on soybean plants; assay type: in vivo, variety Williams
Protocol: A number of soybean plants, variety Williams, were grown from seeds in plastic pots in the greenhouse for a period of one week at which time the plants are thinned to one plant per pot. When the second trifoliate leaf (three weeks) was fully expanded, the plants were treated with a solution of the active ingredient in acetone and water. Aqueous Tween 20 was used as a surfactant.
When the fifth trifoliate leaf (four to five weeks) was fully expanded, the treated plants were compared with the non-treated control plants and the observations recorded.

[2] = tested on: Wild Buckwheat; assay: pre-emergent herbicidal test; assay type: in vivo; settings: Q; further: ranges in brackets are in %
Protocol: (§1) The pre-emergent test was conducted as follows:
(§2) A good grade of top soil was placed in aluminum pans and compactd to a depth of 0.95 to 1.27 cm. from the top of the pan. On the top of the soil was placed a predetermined number of seeds or vegetative propagules of various plant species. The soil required to level fill the pans after seeding or adding vegetative propagules was weighed into a pan. A known amount of the herbicidal active ingredient applied in a solvent or as a wettable powder and the soil were thoroughly mixed, and used as a cover layer for prepared pans. After treatment the pans were moved into a greenhouse bench where they were watered from below as needed to give adequate moisture for germination and growth.
(§3) A herbicidal rating code was used to signify the extent of phytotoxicity of each species. The ratings are defined as follows: […]

[3] = tested on: Sugar Beet; assay: pre-emergent herbicidal test; assay type: in vivo; settings: M; further: ranges in brackets are in %
Protocol: as §1, §2, §3

[4] = tested on: Soybean; assay: pre-emergent herbicidal test; assay type: in vivo; settings: L; further: ranges in brackets are in %
Protocol: as §1, §2, §3

[5] = tested on: Panicum Spp; assay: pre-emergent herbicidal test; assay type: in vivo; settings: S; further: ranges in brackets are in %
Protocol: as §1, §2, §3

[6] = tested on: Sorghum; assay: pre-emergent herbicidal test; assay type: in vivo; settings: P; further: ranges in brackets are in %
Protocol: as §1, §2, §3

[7] = tested on: Crabgrass; assay: pre-emergent herbicidal test; assay type: in vivo; settings: T; further: ranges in brackets are in %
Protocol: as §1, §2, §3

[8] = tested on: Hemp Sesbania; assay: pre-emergent herbicidal test; assay type: in vivo; settings: R; further: ranges in brackets are in %
Protocol: as §1, §2, §3

[9] = tested on: Rice; assay: pre-emergent herbicidal test; assay type: in vivo; settings: O; further: ranges in brackets are in %
Protocol: as §1, §2, §3

[10] = tested on: Wheat; assay: pre-emergent herbicidal test; assay type: in vivo; settings: N; further: ranges in brackets are in %
Protocol: as §1, §2, §3

COC(=N)C(C)n1c(=O)sc2ccccc21 (stereo not shown) [Compound 32]
plant growth regulant observations ([1]; 0.112 kg/h): Inhibition of dry weight.

COC(=N)Cn1c(=O)sc2cc(Br)ccc21 [Compound 33]
plant growth regulant observations ([1]; 0.112 kg/h): Inhibition of dry weight. | pre-emergent herbicidal rating ([2]; 0.28 kg/h, 2 WAT): 0 (0-24) | pre-emergent herbicidal rating ([2]; 1.12 kg/h, 2 WAT): 0 (0-24) | pre-emergent herbicidal rating ([2]; 5.6 kg/h, 4 WAT): 1 (25-49) | pre-emergent herbicidal rating ([3]; 0.28 kg/h, 2 WAT): 0 (0-24) | pre-emergent herbicidal rating ([3]; 1.12 kg/h, 2 WAT): 0 (0-24) | pre-emergent herbicidal rating ([3]; 5.6 kg/h, 4 WAT): 1 (25-49) | pre-emergent herbicidal rating ([4]; 0.28 kg/h, 2 WAT): 0 (0-24) | pre-emergent herbicidal rating ([4]; 1.12 kg/h, 2 WAT): 0 (0-24) | pre-emergent herbicidal rating ([4]; 5.6 kg/h, 4 WAT): 1 (25-49) | pre-emergent herbicidal rating ([5]; 0.28 kg/h, 2 WAT): 0 (0-24) | pre-emergent herbicidal rating ([5]; 1.12 kg/h, 2 WAT): 0 (0-24) | pre-emergent herbicidal rating ([5]; 5.6 kg/h, 4 WAT): 0 (0-24) | pre-emergent herbicidal rating ([6]; 0.28 kg/h, 2 WAT): 0 (0-24) | pre-emergent herbicidal rating ([6]; 1.12 kg/h, 2 WAT): 0 (0-24) | pre-emergent herbicidal rating ([6]; 5.6 kg/h, 4 WAT): 0 (0-24) | pre-emergent herbicidal rating ([7]; 0.28 kg/h, 2 WAT): 0 (0-24) | pre-emergent herbicidal rating ([7]; 1.12 kg/h, 2 WAT): 0 (0-24) | pre-emergent herbicidal rating ([7]; 5.6 kg/h, 4 WAT): 0 (0-24) | pre-emergent herbicidal rating ([8]; 0.28 kg/h, 2 WAT): 0 (0-24) | pre-emergent herbicidal rating ([8]; 1.12 kg/h, 2 WAT): 0 (0-24) | pre-emergent herbicidal rating ([8]; 5.6 kg/h, 4 WAT): 0 (0-24) | pre-emergent herbicidal rating ([9]; 0.28 kg/h, 2 WAT): 0 (0-24) | pre-emergent herbicidal rating ([9]; 1.12 kg/h, 2 WAT): 0 (0-24) | pre-emergent herbicidal rating ([9]; 5.6 kg/h, 4 WAT): 0 (0-24) | pre-emergent herbicidal rating ([10]; 0.28 kg/h, 2 WAT): 0 (0-24) | pre-emergent herbicidal rating ([10]; 1.12 kg/h, 2 WAT): 0 (0-24) | pre-emergent herbicidal rating ([10]; 5.6 kg/h, 4 WAT): 0 (0-24)

COC(=N)C(C)n1c(=O)sc2cc(Br)ccc21 (stereo not shown) [Compound 34]
plant growth regulant observations ([1]; 0.112 kg/h): Leaf alteration of new growth.

COC(=N)Cn1c(=O)oc2ccccc21 [Compound 35]
plant growth regulant observations ([1]; 0.112 kg/h): No response. | plant growth regulant observations ([1]; 0.56 kg/h): No response.

COC(=N)CCn1c(=O)sc2cc(Br)ccc21 [Compound 36]
plant growth regulant observations ([1]; 0.112 kg/h): Leaf alteration of new growth. | plant growth regulant observations ([1]; 0.56 kg/h): Leaf alteration of new growth.
